Experimental data as given in ChEMBL document CHEMBL1201862, “PubChem BioAssay data set” (2004).
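These data come from cells grown in 96-well plates and exposed to compound for 48 hours at five concentrations. Here, GI50 denotes the concentration required for 50% inhibition of growth.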 Activity calls are given as the source filed them. No stated cut-off is given here; in the data, active = GI50 up to about 1.1 µM and inactive = higher.

Tests used:
Test in all cases: NCI tumour cell line growth inhibition, 48 h
MDA-MB-231 = system: MDA-MB-231
SN12C = system: SN12C
786-0 = system: 786-0
SF-268 = system: SF-268
HCC 2998 = system: HCC 2998
KM12 = system: KM12
EKVX = system: EKVX
MDA-MB-435 = system: MDA-MB-435
K562 = system: K562
NCI-H226 = system: NCI-H226
UO-31 = system: UO-31
NCI-H460 = system: NCI-H460
SK-MEL-2 = system: SK-MEL-2
CAKI-1 = system: CAKI-1
HL-60 = system: HL-60
NCI-H23 = system: NCI-H23
SNB-75 = system: SNB-75
MOLT-4 = system: MOLT-4
ACHN = system: ACHN

O=C1/C(=C/c2ccc(O)c(CN3CCCCC3)c2)CCC/C1=C\c1ccc(O)c(CN2CCCCC2)c1
GI50 (MDA-MB-231): 5.69 µM (inactive) | GI50 (SN12C): 8.79 µM (inactive) | GI50 (786-0): 3.52 µM (inactive) | GI50 (SF-268): 3.52 µM (inactive) | GI50 (HCC 2998): 5.64 µM (inactive) | GI50 (KM12): 4.12 µM (inactive) | GI50 (EKVX): 8.85 µM (inactive) | GI50 (MDA-MB-435): 4.66 µM (inactive) | GI50 (K562): 1.99 µM (inactive) | GI50 (NCI-H226): 15.5 µM (inactive) | GI50 (UO-31): 10.4 µM (inactive) | GI50 (NCI-H460): 3.05 µM (inactive) | GI50 (SK-MEL-2): 22.1 µM (inactive) | GI50 (CAKI-1): 18.8 µM (inactive) | GI50 (HL-60): 3.48 µM (inactive) | GI50 (NCI-H23): 5.52 µM (inactive) | GI50 (SNB-75): 2.27 µM (inactive) | GI50 (MOLT-4): 4 µM (inactive) | GI50 (ACHN): 6.31 µM (inactive)

O=C(O)C(Cc1ccccc1)NCc1c(O)ccc2c(-c3ccccc3)cc(=O)oc12 (stereo not drawn)
GI50 (MDA-MB-231): > 100 µM (inactive) | GI50 (SN12C): > 100 µM (inactive) | GI50 (786-0): > 100 µM (inactive) | GI50 (SF-268): > 100 µM (inactive) | GI50 (HCC 2998): > 100 µM (inactive) | GI50 (KM12): > 100 µM (inactive) | GI50 (EKVX): > 100 µM (inactive) | GI50 (MDA-MB-435): > 100 µM (inactive) | GI50 (K562): > 100 µM (inactive) | GI50 (NCI-H226): > 100 µM (inactive) | GI50 (UO-31): > 100 µM (inactive) | GI50 (NCI-H460): > 100 µM (inactive) | GI50 (SK-MEL-2): > 100 µM (inactive) | GI50 (CAKI-1): > 100 µM (inactive) | GI50 (HL-60): > 100 µM (inactive) | GI50 (NCI-H23): > 100 µM (inactive) | GI50 (SNB-75): > 100 µM (inactive) | GI50 (MOLT-4): > 100 µM (inactive) | GI50 (ACHN): > 100 µM (inactive)

SC1CCCN(Cc2ccccc2)C1 (stereo not drawn)
GI50 (MDA-MB-231): 56.5 µM (inactive) | GI50 (SN12C): 95.3 µM (inactive) | GI50 (786-0): 35.7 µM (inactive) | GI50 (SF-268): 65.2 µM (inactive) | GI50 (HCC 2998): 16.2 µM (inactive) | GI50 (KM12): 34.1 µM (inactive) | GI50 (EKVX): > 100 µM (inactive) | GI50 (MDA-MB-435): 31.6 µM (inactive) | GI50 (K562): 23.8 µM (inactive) | GI50 (NCI-H226): > 100 µM (inactive) | GI50 (UO-31): 54.2 µM (inactive) | GI50 (NCI-H460): 23.9 µM (inactive) | GI50 (SK-MEL-2): 36 µM (inactive) | GI50 (CAKI-1): 74.1 µM (inactive) | GI50 (HL-60): 34.8 µM (inactive) | GI50 (NCI-H23): 25.6 µM (inactive) | GI50 (SNB-75): > 100 µM (inactive) | GI50 (MOLT-4): 26.5 µM (inactive) | GI50 (ACHN): 74.8 µM (inactive)

COC(=O)CCC(=O)NC1=C(NCc2ccccc2)C(=O)c2ccccc2C1=O
GI50 (MDA-MB-231): 23.4 µM (inactive) | GI50 (SN12C): 25.5 µM (inactive) | GI50 (786-0): 38.5 µM (inactive) | GI50 (SF-268): 39.8 µM (inactive) | GI50 (HCC 2998): 37.2 µM (inactive) | GI50 (KM12): 24.8 µM (inactive) | GI50 (EKVX): 32.9 µM (inactive) | GI50 (MDA-MB-435): 18.9 µM (inactive) | GI50 (K562): 33.9 µM (inactive) | GI50 (NCI-H226): 85.1 µM (inactive) | GI50 (UO-31): 32.6 µM (inactive) | GI50 (NCI-H460): 18 µM (inactive) | GI50 (SK-MEL-2): 18.8 µM (inactive) | GI50 (CAKI-1): 26.2 µM (inactive) | GI50 (HL-60): 21.8 µM (inactive) | GI50 (NCI-H23): 21.3 µM (inactive) | GI50 (SNB-75): 78.2 µM (inactive) | GI50 (MOLT-4): 34 µM (inactive) | GI50 (ACHN): 27.4 µM (inactive)

NS(=O)(=O)c1ccc(NC(=O)c2ccc3nc4ccccc4c(Nc4ccc(S(N)(=O)=O)cc4)c3c2)cc1
GI50 (MDA-MB-231): > 100 µM (inactive) | GI50 (SN12C): > 100 µM (inactive) | GI50 (786-0): > 100 µM (inactive) | GI50 (SF-268): 87.5 µM (inactive) | GI50 (HCC 2998): > 100 µM (inactive) | GI50 (KM12): 12.1 µM (inactive) | GI50 (EKVX): > 100 µM (inactive) | GI50 (MDA-MB-435): > 100 µM (inactive) | GI50 (K562): > 100 µM (inactive) | GI50 (NCI-H226): > 100 µM (inactive) | GI50 (UO-31): > 100 µM (inactive) | GI50 (NCI-H460): 8.75 µM (inactive) | GI50 (SK-MEL-2): > 100 µM (inactive) | GI50 (CAKI-1): > 100 µM (inactive) | GI50 (HL-60): > 100 µM (inactive) | GI50 (NCI-H23): > 100 µM (inactive) | GI50 (SNB-75): > 100 µM (inactive) | GI50 (MOLT-4): > 100 µM (inactive) | GI50 (ACHN): > 100 µM (inactive)

S=C(N/N=C(/c1ccccc1)c1ccccn1)N(Cc1ccccn1)Cc1ccccn1
GI50 (MDA-MB-231): < 0.0121 µM (active) | GI50 (SN12C): < 0.01 µM (active) | GI50 (786-0): 0.475 µM (active) | GI50 (SF-268): 0.196 µM (active) | GI50 (HCC 2998): 1.63 µM (inactive) | GI50 (KM12): 0.432 µM (active) | GI50 (EKVX): 0.0608 µM (active) | GI50 (MDA-MB-435): 0.841 µM (active) | GI50 (K562): < 0.01 µM (active) | GI50 (NCI-H226): < 0.0488 µM (active) | GI50 (UO-31): 0.356 µM (active) | GI50 (NCI-H460): 0.116 µM (active) | GI50 (SK-MEL-2): 1.28 µM (inactive) | GI50 (CAKI-1): 0.0822 µM (active) | GI50 (HL-60): < 0.0443 µM (active) | GI50 (NCI-H23): 0.108 µM (active) | GI50 (SNB-75): 0.708 µM (active) | GI50 (MOLT-4): < 0.0302 µM (active) | GI50 (ACHN): 0.0418 µM (active)

C=C(C)C1CC[C@@](C)(O)[C@H](C#N)C1 (stereo partly drawn)
GI50 (MDA-MB-231): > 100 µM (inactive) | GI50 (SN12C): > 100 µM (inactive) | GI50 (786-0): > 100 µM (inactive) | GI50 (SF-268): > 100 µM (inactive) | GI50 (HCC 2998): > 100 µM (inactive) | GI50 (KM12): > 100 µM (inactive) | GI50 (EKVX): > 100 µM (inactive) | GI50 (MDA-MB-435): > 100 µM (inactive) | GI50 (K562): > 100 µM (inactive) | GI50 (NCI-H226): > 100 µM (inactive) | GI50 (UO-31): > 100 µM (inactive) | GI50 (NCI-H460): > 100 µM (inactive) | GI50 (SK-MEL-2): > 100 µM (inactive) | GI50 (CAKI-1): > 100 µM (inactive) | GI50 (HL-60): > 100 µM (inactive) | GI50 (NCI-H23): > 100 µM (inactive) | GI50 (SNB-75): 44.5 µM (inactive) | GI50 (MOLT-4): > 100 µM (inactive) | GI50 (ACHN): > 100 µM (inactive)
